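Five compound concentrations were applied to cells in 96-well plates for 48 hours; endpoints were derived by simple linear interpolation of the resulting dose-response curve. GI50: concentration for 50% inhibition of growth.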 The source made the active and inactive calls. Rule as the data show it: active = GI50 up to about 1.1 µM and inactive = higher.
Legend:
Test in all cases: NCI tumour cell line growth inhibition, 48 h
MDA-MB-231 = tested on: MDA-MB-231
Malme-3M = tested on: Malme-3M
U-251 = tested on: U-251
UACC-257 = tested on: UACC-257
EKVX = tested on: EKVX
UACC-62 = tested on: UACC-62
SK-MEL-2 = tested on: SK-MEL-2
NCI-H522 = tested on: NCI-H522
MOLT-4 = tested on: MOLT-4
Hs-578T = tested on: Hs-578T
SK-OV-3 = tested on: SK-OV-3
HOP-62 = tested on: HOP-62
CAKI-1 = tested on: CAKI-1
RXF 393 = tested on: RXF 393
ACHN = tested on: ACHN
OVCAR-3 = tested on: OVCAR-3
UO-31 = tested on: UO-31
SF-539 = tested on: SF-539
NCI-H226 = tested on: NCI-H226
SNB-19 = tested on: SNB-19
MCF7 = tested on: MCF7
SF-268 = tested on: SF-268
DU-145 = tested on: DU-145
HCT-15 = tested on: HCT-15
KM12 = tested on: KM12
BT-549 = tested on: BT-549
HT-29 = tested on: HT-29
OVCAR-5 = tested on: OVCAR-5
T47D = tested on: T47D
SR = tested on: SR
IGROV-1 = tested on: IGROV-1
PC-3 = tested on: PC-3
SK-MEL-28 = tested on: SK-MEL-28
SNB-75 = tested on: SNB-75
HOP-92 = tested on: HOP-92
TK-10 = tested on: TK-10
M14 = tested on: M14
K562 = tested on: K562
NCI-H460 = tested on: NCI-H460
OVCAR-4 = tested on: OVCAR-4
COLO 205 = tested on: COLO 205
NCI-H23 = tested on: NCI-H23
HCC 2998 = tested on: HCC 2998
HL-60 = tested on: HL-60
SF-295 = tested on: SF-295
HCT-116 = tested on: HCT-116
CCRF-CEM = tested on: CCRF-CEM
LOX IMVI = tested on: LOX IMVI
SW-620 = tested on: SW-620
SK-MEL-5 = tested on: SK-MEL-5
OVCAR-8 = tested on: OVCAR-8
NCI/ADR-RES = tested on: NCI/ADR-RES
SN12C = tested on: SN12C
MDA-MB-435 = tested on: MDA-MB-435
A549 = tested on: A549
MDA-N = tested on: MDA-N
786-0 = tested on: 786-0
RPMI-8226 = tested on: RPMI-8226

Cn1c2ccccc2c(=NNc2ccccc2C(=O)O)c2ccccc21 was tested, and the GI50 (MDA-MB-231) was 16.9 µM (inactive), the GI50 (Malme-3M) was 20.4 µM (inactive) and the GI50 (U-251) was 7.03 µM (inactive). The GI50 (UACC-257) was 23.8 µM (inactive), the GI50 (EKVX) was 11.8 µM (inactive) and the GI50 (UACC-62) was 19.5 µM (inactive). For the same compound, the GI50 (SK-MEL-2) was 18.7 µM (inactive), the GI50 (NCI-H522) was 12 µM (inactive) and the GI50 (MOLT-4) was 10.9 µM (inactive). For the same compound, the GI50 (Hs-578T) was 21.9 µM (inactive), the GI50 (SK-OV-3) was 20.3 µM (inactive) and the GI50 (HOP-62) was 23.1 µM (inactive). The GI50 (CAKI-1) was 23.3 µM (inactive), the GI50 (RXF 393) was 12.7 µM (inactive) and the GI50 (ACHN) was 15.5 µM (inactive). The GI50 (OVCAR-3) was 10.8 µM (inactive), the GI50 (UO-31) was 18.4 µM (inactive) and the GI50 (SF-539) was 13.1 µM (inactive). The GI50 (NCI-H226) was 16.2 µM (inactive), the GI50 (SNB-19) was 24.4 µM (inactive) and the GI50 (MCF7) was 10.9 µM (inactive). For the same compound, the GI50 (SF-268) was 15.8 µM (inactive), the GI50 (DU-145) was 27.5 µM (inactive) and the GI50 (HCT-15) was 7.87 µM. For the same compound, the GI50 (KM12) was 12.7 µM (inactive), the GI50 (BT-549) was 19.1 µM (inactive) and the GI50 (HT-29) was 17.7 µM (inactive). For the same compound, the GI50 (OVCAR-5) was 30.3 µM (inactive), the GI50 (T47D) was 20.3 µM (inactive) and the GI50 (SR) was 11.9 µM (inactive). For the same compound, the GI50 (IGROV-1) was 24.2 µM (inactive), the GI50 (PC-3) was 12.3 µM (inactive) and the GI50 (SK-MEL-28) was 20.2 µM (inactive). The GI50 (SNB-75) was 21.1 µM (inactive), the GI50 (HOP-92) was 21.7 µM (inactive) and the GI50 (TK-10) was 32.1 µM (inactive). For the same compound, the GI50 (M14) was 22.6 µM (inactive), the GI50 (K562) was 8.97 µM (inactive) and the GI50 (NCI-H460) was 13.2 µM (inactive). For the same compound, the GI50 (OVCAR-4) was 13.7 µM (inactive), the GI50 (COLO 205) was 16.3 µM (inactive) and the GI50 (NCI-H23) was 20.9 µM (inactive). For the same compound, the GI50 (HCC 2998) was 19.7 µM (inactive), the GI50 (HL-60) was 17 µM (inactive) and the GI50 (SF-295) was 17.6 µM (inactive). For the same compound, the GI50 (HCT-116) was 13.5 µM (inactive), the GI50 (CCRF-CEM) was 13.2 µM (inactive) and the GI50 (LOX IMVI) was 11.8 µM (inactive). For the same compound, the GI50 (SW-620) was 24.4 µM (inactive), the GI50 (SK-MEL-5) was 13.7 µM (inactive) and the GI50 (OVCAR-8) was 17.5 µM (inactive). For the same compound, the GI50 (NCI/ADR-RES) was 20.1 µM (inactive), the GI50 (SN12C) was 23.7 µM (inactive) and the GI50 (MDA-MB-435) was 20 µM (inactive). The GI50 (A549) was 12.9 µM (inactive), the GI50 (MDA-N) was 21.2 µM (inactive) and the GI50 (786-0) was 27.5 µM (inactive). The GI50 (RPMI-8226) was 9.82 µM (inactive).
Nn1c(Cc2ccc([N+](=O)[O-])cc2)n[nH]c1=O was tested, and the GI50 (MDA-MB-231) was > 100 µM (inactive), the GI50 (Malme-3M) was > 100 µM (inactive) and the GI50 (U-251) was > 100 µM (inactive). The GI50 (UACC-257) was > 100 µM (inactive), the GI50 (EKVX) was > 100 µM (inactive) and the GI50 (UACC-62) was > 100 µM (inactive). The GI50 (SK-MEL-2) was > 100 µM (inactive), the GI50 (NCI-H522) was > 100 µM (inactive) and the GI50 (MOLT-4) was > 100 µM (inactive). The GI50 (Hs-578T) was > 100 µM (inactive), the GI50 (SK-OV-3) was > 100 µM (inactive) and the GI50 (HOP-62) was > 100 µM (inactive). For the same compound, the GI50 (CAKI-1) was > 100 µM (inactive), the GI50 (ACHN) was > 100 µM (inactive) and the GI50 (OVCAR-3) was > 100 µM (inactive). The GI50 (UO-31) was > 100 µM (inactive), the GI50 (SF-539) was > 100 µM (inactive) and the GI50 (NCI-H226) was > 100 µM (inactive). For the same compound, the GI50 (SNB-19) was > 100 µM (inactive), the GI50 (MCF7) was > 100 µM (inactive) and the GI50 (SF-268) was > 100 µM (inactive). The GI50 (DU-145) was > 100 µM (inactive), the GI50 (HCT-15) was over 100 µM and the GI50 (KM12) was > 100 µM (inactive). For the same compound, the GI50 (BT-549) was > 100 µM (inactive), the GI50 (HT-29) was > 100 µM (inactive) and the GI50 (OVCAR-5) was > 100 µM (inactive). The GI50 (T47D) was > 100 µM (inactive), the GI50 (SR) was > 100 µM (inactive) and the GI50 (IGROV-1) was > 100 µM (inactive). For the same compound, the GI50 (PC-3) was > 100 µM (inactive), the GI50 (SK-MEL-28) was > 100 µM (inactive) and the GI50 (SNB-75) was > 100 µM (inactive). For the same compound, the GI50 (HOP-92) was > 100 µM (inactive), the GI50 (M14) was > 100 µM (inactive) and the GI50 (K562) was > 100 µM (inactive). The GI50 (NCI-H460) was > 100 µM (inactive), the GI50 (OVCAR-4) was > 100 µM (inactive) and the GI50 (COLO 205) was > 100 µM (inactive). For the same compound, the GI50 (NCI-H23) was > 100 µM (inactive), the GI50 (HCC 2998) was > 100 µM (inactive) and the GI50 (HL-60) was > 100 µM (inactive). The GI50 (SF-295) was > 100 µM (inactive), the GI50 (HCT-116) was > 100 µM (inactive) and the GI50 (CCRF-CEM) was > 100 µM (inactive). The GI50 (LOX IMVI) was > 100 µM (inactive), the GI50 (SW-620) was > 100 µM (inactive) and the GI50 (SK-MEL-5) was > 100 µM (inactive). The GI50 (OVCAR-8) was > 100 µM (inactive), the GI50 (NCI/ADR-RES) was > 100 µM (inactive) and the GI50 (SN12C) was > 100 µM (inactive). The GI50 (MDA-MB-435) was > 100 µM (inactive), the GI50 (A549) was > 100 µM (inactive) and the GI50 (MDA-N) was > 100 µM (inactive). The GI50 (786-0) was > 100 µM (inactive) and the GI50 (RPMI-8226) was > 100 µM (inactive).

From ChEMBL document CHEMBL1201862, “PubChem BioAssay data set” (2004)
